Measurements from US20140309184A1, “METHODS AND COMPOSITIONS FOR THE TREATMENT OF OVARIAN CANCER” (UNIVERSITY OF SOUTH ALABAMA, priority 2011, published 2014).
Entries after “also recorded” stand apart in the source; their conditions may differ.

Experiments:
[1] = tested on: CP2780 xenografts; assay: Xenograft tumor growth, carboplatin-resistant model; assay type: in vivo; details: SCID mice; BMS-833923 100 mg/kg i.p. daily, Carboplatin 40 mg/kg i.p. twice a week, two weeks
Method: (§1) Female SCID mice 6-8 weeks old were inoculated i.p. with 5×10^6 A2780 or A2780/CP70 cells suspended in 200 μL PBS (PH 7.4). Seven days later when the tumor reached a size of greater than 150 mm^3, the mice were randomly divided into 4 groups (8 mice per group) as follows: (1) PBS-treated control; (2) BMS-833923 alone (100 mg/kg, i.p. daily, two weeks); (3) Carboplatin alone (40 mg/kg, i.p. twice a week, two weeks); (4) Combination of BMS-833923 and Carboplatin treatment. Mice were weighed and tumor diameters were measured with calipers every 2-3 days for 20 days. The tumor volumes (mm^3) were calculated as (W^2×L)/2, where W and L are the minor and major diameters (in millimeters), respectively.
(§2) Xenograft experiments were performed as described above. Carboplatin was dosed days 7, 11, 14, 18; BMS-833923 was dosed days 8 through 20. The experiment was terminated due to excessive tumor size in vehicle and BMS-833923 treatment groups.
The CP2780 was derived from the A2780 Ovarian tumor xenograft model by selection for resistance to cisplatin. The CP2780 growth appeared to be more robust than observed for parental A2780 model (FIG. 12B). Average tumor volume doubling time for CP2780 was estimated at 2 days. Doubling time for parental A2780 tumor model was estimated at 3 days. […]

[2] = tested on: GLI1; assay: Localization of Gli1 by immunofluorescent staining in SKOV3 cells; assay type: cell-based; details: SKOV3, 24 hours treatment
Method: Considering intranuclear Gli1 confers an activated Hh pathway, SKOV3 cells were evaluated for Gli1 location after BMS-833923 treatment and compared to control (no treatment). Cells were grown on Poly-L-Lysine coated Glass Coverslips (BD Bioscience) for overnight, then incubated with 5 μM BMS-833923 for 24 hours, respectively, fixed in 4% paraformaldehyde for 15 minutes at room temperature, washed with PBS and permeabilized with 0.25% Triton X-100 (Sigma) for 10 minutes. Primary antibody (Anti-human Gli1 antibody, Santa Cruz Biotechnology, Inc.) incubation followed for overnight at 4° C. After washing thoroughly with PBS, cells were further probed with secondary antibody (anti-rabbit IgG-FITC, Sigma) for one hour at room temperature. Nuclei were counterstained with diluted DAPI (Sigma) for 3 minutes before mounting and analyzing with microscope.
SKOV3 cells were treated with 2.5 μBMS-833923 and the cellular location of Gli1 determined at various times using immunofluorescence. Immunofluorescence analysis was performed as described above. In untreated control cell, Gli1 is concentrated in the nucleus at 24 hrs, indicating an activated Hh pathway. […] Both indicating restriction of Gli1 from the nucleus and inhibition of Hh pathway.

[3] = tested on: A2780/CP70 cells; assay: Carboplatin IC50 with and without BMS-833923 in platinum resistant cell line; assay type: cell-based; details: A2780/CP70, addition of BMS-833923 at 5 μM
Method: Considering the synergy described above and that the Hedgehog pathway is associated with cancer stem cell properties. In the effect of BMS-833923 plus carboplatin in two isogenic ovarian cancer cell lines specifically designed to evaluate platinum resistance mechanisms: A2780 (platinum sensitive) & A2780/CP70 (platinum resistant). Each cell line was evaluated to determine the IC50 dose of carboplatin to ensure a discernable difference in platinum treatment could be determined (FIG. 11A). The A2780/CP70 cell line required a 4-fold increase in carboplatin to reach IC50 (A2780/CP70=400 μM; A2780=100 μM). […] (FIG. 11B and FIG. 11C).

[4] = MTD for combination therapy; assay type: in vivo; details: in vivo; BMS-833923 + carboplatin given together; previously demonstrated
Description: Treatment with BMS-833923 appeared to have little effect on the growth of A2780 xenografts in vivo.

[5] = tested on: SKOV3 OCSC (CD44+/CD24-); assay: Matrigel invasion assay of CD44+/CD24- ovarian cancer stem cells; assay type: cell-based; details: 2.5 μM, 24 hours
Method: (§3) Fluorescence-activated cell sorting (FACS) was performed in order to sort into 2 distinct phenotypes: 1) ovarian cancer stem cell phenotype (OCSC=CD44+/CD24−) and 2) non-ovarian cancer stem cells (non-OCSC=all other phenotypes). Each ovarian cancer phenotype was evaluated for invasion properties using the Matrigel invasion assay for the SKOV3 and OV90 cell lines. Matrigel™-coated chamber (BD Pharmingen) were rehydrated for 2 hours in humidified tissue culture incubator at 37° C., 5% CO2. After rehydration, the medium was carefully removed without disturbing the layer of Matrigel Matrix on the membrane. The cell suspension was prepared in serum-free medium containing 10^5 cells/mL. The lower chambers of the 24-well plate were filled with 750 μL serum-free medium containing 10 μg/mL fibronectin as a chemotactic factor. […] The cells were then fixed, stained and counted. Numbers of invaded cells at least 10 consecutive fields were enumerated and their average was calculated. Data are expressed as the number of migrating cells per field. Three groups were evaluated: 1) non-OCSC; 2) OCSC; 3) OCSC plus BMS833923 treatment.
(§4) One aggressive property of cancer includes the ability to invade tissues locally. Therefore, the ability of Ovarian Cancer Stem Cells (OCSC) with CD44+/CD24− phenotype to invade via Matrigel invasion assay was evaluated. […]

[6] = tested on: OV90 OCSC (CD44+/CD24-); assay: as above; assay type: cell-based; details: 2.5 μM, 24 hours
Method: as §3, §4

[7] = tested on: A2780 xenografts; assay: Xenograft tumor growth, carboplatin-sensitive model; assay type: in vivo; details: SCID mice; BMS-833923 100 mg/kg i.p. daily, Carboplatin 40 mg/kg i.p. twice a week, two weeks
Method: as §1, §2

## CNCc1ccc(C)c(NC(=O)c2ccc(Nc3nc(-c4ccccc4)c4ccccc4n3)cc2)c1 [BMS-833923, N-{2-methyl-5-[(methylamino)methyl]phenyl}-4-[(4-phenylquinazolin-2-yl)amino]benzamide]
[1]
  effect on growth of CP2780 (A2780/CP70) xenografts in vivo: little effect
[2]
  cellular location of Gli1: near complete exclusion of intranuclear GLl1; also recorded: Gli1 being excluded from the nucleus
[3]
  reduction of platinum needed to achieve the same cell death: 10 fold
[4]
  MTD: 100 mg/kg
[5]
  invasive properties of OCSC (number of cells invaded): lower than non-OCSCs
[6]
  invasive properties of OCSC (number of cells invaded): lower than non-OCSCs
[7]
  effect on growth of A2780 xenografts in vivo: little effect
